Assay results as given in ChEMBL document CHEMBL3045995, “Novel antifeeding limonoids from Dysoxylum hainanense” (2002).

Tested on: Pieris rapae
Test: Antifeeding activity against fifth-instar larvae Pieris rapae in compound treated Brassica oleracea L leaf disk at 500 ppm measured after 24 hr relative to control
Format: functional

SMILES	FDI
CC(C)C(O)C(=O)OC(C(=O)O[C@@H]1[C@H](O)[C@@H]2[C@](C)(/C=C\C(=O)OC[C@@]2(C)O)[C@H]2CC[C@@]3(C)[C@H](c4ccoc4)OC(=O)[C@H]4O[C@]43[C@]12C)C(C)C (stereo partly specified) [DYSOXYLUMOLIDE C]	22.4%
CC(=O)O[C@@H]1[C@H]2C(=C3[C@H](O)[C@H](O)[C@@H](c4ccoc4)[C@]3(C)[C@H]1OC(=O)C(O)C(C)C)COC(=O)C[C@@H](OC(=O)C(O)C(C)C)[C@@]2(C)[C@@H](CC(=O)O)C(C)(O)CO (stereo partly specified) [DYSOXYLUMIC ACID D]	29.5%
C/C=C(\C)C(=O)O[C@H]1C[C@@H](OC(C)=O)[C@@]2(C(=O)OC)CO[C@H]3[C@@H](O)[C@@](C)([C@]45O[C@@]4(C)[C@@H]4C[C@H]5O[C@@H]5OC=C[C@@]54O)[C@H]4[C@]1(CO[C@]4(O)C(=O)OC)[C@@H]32 [AZADIRACHTIN A]	100%
C=C1[C@@H]2[C@@H](O[C@H]3CC(=O)O[C@@]4(C)COC(=O)C[C@@H]4[C@]32C)[C@H](OC(=O)C(O)C(C)C)[C@@]2(C)[C@H](c3ccoc3)[C@@H](OC(=O)C(O)C(C)C)[C@H]3O[C@]132 (stereo partly specified) [DYSOXYLUMOLIDE A]	27.9%
C=C1[C@@H]([C@]2(C)[C@H]3CC(=O)O[C@@]3(C)CO[C@@H]2CC(=O)O)[C@@H](O)[C@H](OC(=O)C(O)C(C)C)[C@@]2(C)[C@H](c3ccoc3)[C@@H](O)[C@H]3O[C@]132 (stereo partly specified) [DYSOXYLUMIC ACID A]	78.7%
C=C1[C@@H]([C@@]2(C)[C@@H](OC(C)=O)CC(=O)O[C@](C)(COC(C)=O)[C@@H]2CC(=O)OC)[C@@H](OC=O)[C@H](OC(=O)[C@H](O)C(C)C)[C@@]2(C)[C@@H](c3ccoc3)[C@@H](OC(=O)[C@H](O)C(C)C)[C@H]3O[C@]132 [DYSOXYLUMINS C]	74.9%
C=C1[C@@H]2[C@@H](O[C@@H](CC(=O)O)[C@@]2(C)[C@H]2CC(=O)O[C@]2(C)CO)[C@H](OC(=O)C(O)C(C)C)[C@@]2(C)[C@H](c3ccoc3)[C@@H](O)[C@H]3O[C@]132 (stereo partly specified) [DYSOXYLUMIC ACID C]	59.4%
C=C1[C@@H]([C@@]2(C)[C@@H](OC(C)=O)CC(=O)O[C@](C)(COC(C)=O)[C@@H]2CC(=O)OC)[C@@H](OC=O)[C@H](OC(=O)[C@H](O)C(C)C)[C@@]2(C)[C@@H](c3ccoc3)[C@@H](OC(=O)[C@H](OC(C)=O)C(C)C)[C@H]3O[C@]132 [DYSOXYLUMINS B]	77.4%
CC(C)C(O)C(=O)O[C@H]1[C@H](O)[C@H]2C(=C3[C@H](O)[C@H](O)[C@@H](c4ccoc4)[C@@]31C)COC(=O)C[C@@H](OC(=O)C(O)C(C)C)[C@@]2(C)[C@H]1CC(=O)OC[C@@]1(C)O (stereo partly specified) [DYSOXYLUMOLIDE B]	28.3%
C=C1[C@@H]([C@]2(C)[C@H]3CC(=O)O[C@@]3(C)CO[C@@H]2CC(=O)O)[C@@H](O)[C@H](OC(=O)C(O)C(C)C)[C@@]2(C)[C@H](C3=CC(O)OC3=O)[C@@H](O)[C@H]3O[C@]132 (stereo partly specified) [DYSOXYLUMIC ACID B]	64.1%
C=C1[C@@H]([C@@]2(C)[C@@H](OC(C)=O)CC(=O)O[C@](C)(COC(C)=O)[C@@H]2CC(=O)OC)[C@@H](OC=O)[C@H](OC(=O)[C@H](O)C(C)C)[C@@]2(C)[C@@H](c3ccoc3)[C@@H](OC(=O)[C@@H](C)CC)[C@H]3O[C@]132 [DYSOXYLUMINS A]	73.8%
